According to patent US20200362301A1, “EFFICIENT, SCALABLE PRODUCTION OF HUMAN RETINAL PROGENITORS IN VITRO” (Wisconsin Alumni Research Foundation, priority 2019, published 2020):

Tests used:
Type in all cases: cell-based, human
[1] = tested on: wildtype cells (H9 hESCs) in retinal differentiation; test: qPCR of retinal gene (EFTF) expression in wildtype cells during retinal differentiation under WNT agonist/antagonist
Experimental: WNT8B has a restricted expression in the developing dorsal forebrain (Lako et al., 1998) and plays a repressive role in retinal fate specification (Liu et al., 2010). […] Given the direct connection between PAX6D and WNT8B, we hypothesized that PAX6D regulates retinal specification by repressing WNT8B transcription and thus WNT activity. Indeed, treatment with WNT agonist (CHIR99021, 3 μM) in wildtype cells from day 0 to day 10 suppressed the expression EFTFs. In contrast, treatment with a WNT antagonist (IWR1, 2.5 μM) in wildtype cells enhanced the expression of EFTFs (FIG. 8B).
(§1) Retinal differentiation from human pluripotent stem cells was performed using the published protocol (Zhong et al., 2014). Briefly, hESCs were passaged to Vitronectin-coated plates and cultured to 60-70% confluency. On day 0 of retinal differentiation, cells were enzymatically detached by dispase (1 mg/ml) and cultured in suspension with E8 medium to form embryoid bodies (EB). […]
(§2) Total RNA was isolated with the RNeasy Plus Mini Kit according to the manufacturer's instructions. For quantitative PCR (qPCR), cDNA was synthesized using PrimeScrip RT Reagent Kit. qPCR was performed using iTaq Universal SYBR Green Supermix. […]

PAX6D TetOn cells [2] = test: qPCR of retinal gene expression in PAX6D TetOn cells with DOX induction, with or without WNT agonist
Description: (§3) We then examined the retinal progenitor population when PAX6A or PAX6D was induced. We turned on PAX6A and PAX6D separately in PAX6 KO cells after neuroepithelial cells were generated at day 6 and monitored the retinal progenitor generation along retinal differentiation. […] Thus, PAX6D but not PAX6A restores the PAX6 function in retinal specification.
(§4) We then asked if the failure of retinal specification in the PAX6D KO cells is rescued by regulating WNT signaling. Treatment of the PAX6D KO cells with IWR1 during retinal differentiation from day 0 to day 10 increased the expression of retinal related genes, including VSX2, LHX2, HES5, SIX3 and SIX6 (FIG. 8C). […] To further corroborate the role of WNTs in mediating the function of PAX6D in retinal specification, we then activated WNT pathway signaling under PAX6D induction along retinal differentiation.
(§5) PAX6 KO and PAX6D KO cell lines were designed by inserting the PGK-Puromycin in exon 8 and exon alpha of the PAX6 gene, respectively, which terminates the normal translation of PAX6 genes early and PAX6D isoform specifically. The PAX6 KO cells were then used to generate PAX6A TetOn and PAX6D TetOn by inserting the TetOn-PAX6A-3×FLAG and TetOn-PAX6D-3×FLAG into the AAVS1 site of PAX6 KO genome.
as §1, with “(EB). EBs were gradually transitioned into neural induction medium (NIM) containing DMEM/F12 (1:1), 1% N2 and 1×NEAA by replacing the medium with a 3:1 ratio of E8/NIM on day 1, 1:1 on day 2, and 100% NIM on day 3.” for “(EB).”
as §2

PAX6D TetOn cells [3] = test: Flow cytometry of SOX1-/SOX2+ retinal progenitor population in PAX6D TetOn cells; conditions: PAX6D induced (from 2.71% without induction)
Experimental: as §3
(§6) Flow cytometry was performed using Transcription Factor Buffer Set which is designed for transcription factor staining following manufacturer's instruction. Briefly, single cells were prepared using TrypLE Express Enzyme and fixed in the fixation buffer provided by the kit at 2-8° C. for 45 min. After 3 washings with the permeable buffer, the primary antibodies (PE-SOX1, V450-SOX2) were added to cells for 45 min at 2-8° C. in a light-tight box. The cells were washed 3 times before analyzed by flow cytometry (BD LSR or BD LSRII). Data analysis was performed using FlowJo.

PAX6A TetOn cells = test: Flow cytometry of SOX1-/SOX2+ retinal progenitor population in PAX6A TetOn cells; conditions: PAX6A induced (from 2.45% without induction)
Experimental: as §3, §6

PAX6D KO cells = test: qPCR of retinal gene expression in PAX6D KO cells treated with WNT antagonist (rescue of retinal differentiation); conditions: treatment from day 0 to day 10 of retinal differentiation
Description: as §4, §5
Retinal differentiation from human pluripotent stem cells was performed using the published protocol (Zhong et al., 2014). Briefly, hESCs were passaged to Vitronectin-coated plates and cultured to 60-70% confluency. […]
as §2

[4] = PAX6D TetOn in PAX6 KO, DOX for 7 days from day 6 of retinal differentiation

Cc1c[nH]c(-c2cnc(NCCNc3ccc(C#N)cn3)nc2-c2ccc(Cl)cc2Cl)n1 [CHIR99021]
expression of EFTFs (qPCR) ([1]; WNT agonist 3 μM from day 0 to day 10 of retinal differentiation): suppressed | PAX6D-induced retinal differentiation (expression of VSX2, LHX2, SIX6, NR2F1 and VAX2 at day 10) (PAX6D TetOn cells [2]; PAX6D TetOn cells induced by DOX, WNT agonist from day 0 to day 10): completely blocked

C[C@H]1c2cccc(O)c2C(=O)C2=C(O)[C@]3(O)C(=O)C(C(N)=O)=C(O)[C@@H](N(C)C)[C@@H]3[C@@H](O)[C@@H]21 [DOX, doxycycline]
VAX2 expression increase (PAX6D TetOn cells [2]; [4]): 2 fold | VSX2 expression increase (PAX6D TetOn cells [2]; [4]): 3 fold | SOX1-/SOX2+ retinal progenitor population (flow cytometry) (PAX6D TetOn cells [3]): 23.1% | SOX1-/SOX2+ retinal progenitor population (flow cytometry) (PAX6A TetOn cells): 2.22%

O=C(Nc1cccc2cccnc12)c1ccc(N2C(=O)[C@@H]3[C@H](C2=O)[C@@H]2C=C[C@H]3C2)cc1 [IWR1]
expression of EFTFs (qPCR) ([1]; WNT antagonist 2.5 μM): enhanced | expression of retinal related genes, including VSX2, LHX2, HES5, SIX3 and SIX6 (PAX6D KO cells): increased
